Where a name gives a salt, the structure may show the parent alone. Read-outs that look alike come from different tables or passages of the source.
Columns and labels:
[1] = target: T1, PDGFRβ (Homo sapiens (Human), UniProt P09619); experiment: PDGFRβ enzyme inhibition (ADP-Glo assay); format: biochemical
[2] = target: T1, PDGFRβ; experiment: PDGF-BB induced phosphorylation of PDGFRβ in fibroblasts (MRC5, HTRF); format: cell-based; details: MRC5 cells, PDGFBB stimulation; read-out: PDGFBB-induced PDGFRβ phosphorylation in MRC5 cells (IC50)
[3] = test system: MRC5 cells; experiment: Cell viability assay in MRC5 cells (MTT)
[4] = mean, n = 2 (nintedanib n = 34)

T1 sequence (P09619 33-1106): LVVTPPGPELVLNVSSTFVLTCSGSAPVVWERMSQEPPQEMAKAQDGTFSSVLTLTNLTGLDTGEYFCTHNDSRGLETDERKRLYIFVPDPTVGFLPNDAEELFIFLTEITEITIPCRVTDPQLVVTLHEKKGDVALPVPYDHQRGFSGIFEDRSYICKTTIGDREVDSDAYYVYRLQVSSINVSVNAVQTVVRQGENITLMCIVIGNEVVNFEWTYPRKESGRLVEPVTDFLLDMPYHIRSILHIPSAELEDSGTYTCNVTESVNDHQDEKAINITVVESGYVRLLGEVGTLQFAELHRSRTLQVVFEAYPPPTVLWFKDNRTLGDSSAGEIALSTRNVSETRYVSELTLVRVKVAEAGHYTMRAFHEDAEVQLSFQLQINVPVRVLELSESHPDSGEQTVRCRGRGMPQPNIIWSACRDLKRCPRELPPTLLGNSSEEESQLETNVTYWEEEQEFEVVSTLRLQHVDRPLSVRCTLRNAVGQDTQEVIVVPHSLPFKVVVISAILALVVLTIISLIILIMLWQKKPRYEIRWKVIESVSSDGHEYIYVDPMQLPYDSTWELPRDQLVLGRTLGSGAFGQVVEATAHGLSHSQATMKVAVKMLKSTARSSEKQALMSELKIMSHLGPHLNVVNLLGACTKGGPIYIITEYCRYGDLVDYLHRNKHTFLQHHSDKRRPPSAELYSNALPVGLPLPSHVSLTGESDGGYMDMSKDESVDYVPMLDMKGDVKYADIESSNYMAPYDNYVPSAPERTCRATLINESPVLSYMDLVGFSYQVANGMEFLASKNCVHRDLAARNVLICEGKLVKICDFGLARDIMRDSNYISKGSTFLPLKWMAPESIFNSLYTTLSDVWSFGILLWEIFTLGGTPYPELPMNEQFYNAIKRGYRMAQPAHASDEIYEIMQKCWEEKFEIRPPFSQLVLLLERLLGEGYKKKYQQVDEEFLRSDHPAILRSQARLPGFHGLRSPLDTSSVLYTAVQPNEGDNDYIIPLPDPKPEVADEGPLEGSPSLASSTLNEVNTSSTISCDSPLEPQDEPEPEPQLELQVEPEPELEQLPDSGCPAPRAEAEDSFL

| SMILES | Ki [1] | IC50 [2] | Cell viability at 100 nM (%) [3] | Cell viability at 300 nM (%) [3] | Cell viability at 1000 nM (%) [3] | Ki [1, 4] |
| --- | --- | --- | --- | --- | --- | --- |
| COC(=O)c1cc2c(cc1C)/C(=C(/Nc1ccc(C(=O)NCCN(C)C)cc1)c1ccccc1)C(=O)N2 [Example 2, (Z)-Methyl 3-(((4-((2-(dimethylamino)ethyl)carbamoyl)phenyl)amino)(phenyl)methylene)-5-methyl-2-oxoindoline-6-carboxylate, formate] | 11.1 nM | 36.7 nM | 94% | 91% | 68.5% |  |
| COC(=O)c1cc2c(cc1C)/C(=C(/Nc1ccc(C(=O)NCCN3CCC(F)(F)CC3)cc1)c1ccccc1)C(=O)N2 [Example 23, (Z)-Methyl 3-(((4-((2-(4,4-difluoropiperidin-1-yl)ethyl)carbamoyl)phenyl)amino)(phenyl)methylene)-5-methyl-2-oxoindoline-6-carboxylate] |  | 22.6 nM | 90.7% | 100.5% | 62.1% | 84.6 nM |
| COC(=O)c1cc2c(cc1C)/C(=C(/Nc1ccc(C(=O)NCCN3CCN(C(C)=O)CC3)cc1)c1ccccc1)C(=O)N2 [Example 24, (Z)-Methyl 3-(((4-((2-(4-acetylpiperazin-1-yl)ethyl)carbamoyl)phenyl)amino)(phenyl)methylene)-5-methyl-2-oxoindoline-6-carboxylate] |  | 12.3 nM | 125.2% | 74.4% | 45.9% | 12.7 nM |
| COC(=O)c1cc2c(cc1C)/C(=C(/Nc1ccc(C(=O)NCCN3CCC(F)CC3)cc1)c1ccccc1)C(=O)N2 [Example 28, (Z)-Methyl 3-(((4-((2-(4-fluoropiperidin-1-yl)ethyl)carbamoyl)phenyl)amino)(phenyl)methylene)-5-methyl-2-oxoindoline-6-carboxylate, formate] | 20 nM | 51.3 nM | 149.4% | 97.6% | 83.6% |  |
| COC(=O)c1cc2c(cc1C)/C(=C(/Nc1ccc(C(=O)N(C)C3CCN(CCO)CC3)cc1)c1ccccc1)C(=O)N2 [Example 41, (Z)-Methyl 3-(((4-((1-(2-hydroxyethyl)piperidin-4-yl)(methyl)carbamoyl)phenyl)amino)(phenyl)methylene)-5-methyl-2-oxoindoline-6-carboxylate, 0.2 formate] |  | 7.4 nM | 68.5% | 56.8% | 6.2% | 10.2 nM |
| COC(=O)c1cc2c(cc1C)/C(=C(/Nc1ccc(C(=O)NCCN3CCC(CO)CC3)cc1)c1ccccc1)C(=O)N2 [Example 42, (Z)-Methyl 3-(((4-((2-(4-(hydroxymethyl)piperidin-1-yl)ethyl)carbamoyl)phenyl)amino)(phenyl)methylene)-5-methyl-2-oxoindoline-6-carboxylate, 0.2 formate] |  | 14.9 nM | 82.5% | 83.4% | 60.7% | 14.4 nM |
| COC(=O)c1cc2c(cc1C)/C(=C(/Nc1ccc(C(=O)N3CCCN(CCO)CC3)cc1)c1ccccc1)C(=O)N2 [Example 46, (Z)-Methyl-3-(((4-(4-(2-hydroxyethyl)-1,4-diazepane-1-carbonyl)phenyl)amino)(phenyl)methylene)-5-methyl-2-oxoindoline-6-carboxylate] |  | 2.49 nM | 87% | 80.2% | 18.2% | 6.65 nM |
| COC(=O)c1cc2c(cc1C)/C(=C(/Nc1ccc(C(=O)N3CCC(C(N)=O)(N4CCCCC4)CC3)cc1)c1ccccc1)C(=O)N2 [Example 47, (Z)-Methyl 3-(((4-(4′-carbamoyl-[1,4′-bipiperidine]-1′-carbonyl)phenyl)amino)(phenyl)methylene)-5-methyl-2-oxoindoline-6-carboxylate] |  | 3.67 nM | 143.1% | 123% | 58.5% | 98.9 nM |
| COC(=O)c1cc2c(cc1C)/C(=C(/Nc1ccc(C(=O)N(C)[C@H]3CN(C)C[C@@H]3O)cc1)c1ccccc1)C(=O)N2 [Example 48, (Z)-Methyl 3-(((4-(((3S,4S)-4-hydroxy-1-methylpyrrolidin-3-yl)(methyl)carbamoyl)phenyl)amino)(phenyl)methylene)-5-methyl-2-oxoindoline-6-carboxylate, 0.4 formate] |  | 2.29 nM | 84.4% | 74.4% | 14.1% | 9.49 nM |
| CNC(=O)CN(C)CCNC(=O)c1ccc(N/C(=C2\C(=O)Nc3cc(C(=O)OC)c(C)cc32)c2ccccc2)cc1 [Example 54, (Z)-Methyl 5-methyl-3-(((4-((2-(methyl(2-(methylamino)-2-oxoethyl)amino)ethyl)carbamoyl)phenyl)amino)(phenyl)methylene)-2-oxoindoline-6-carboxylate] |  | 5.04 nM | 110.2% | 105.5% | 92.4% | 15.8 nM |
| COC(=O)c1cc2c(cc1C)/C(=C(/Nc1ccc(C(=O)NCCN3CCNC(=O)C3)c(F)c1)c1ccccc1)C(=O)N2 [Example 55, (Z)-Methyl 3-(((3-fluoro-4-((2-(3-oxopiperazin-1-yl)ethyl)carbamoyl)phenyl)amino)(phenyl)methylene)-5-methyl-2-oxoindoline-6-carboxylate] |  | 9.13 nM | 79.4% | 101.5% | 101.7% | 25.1 nM |
| COC(=O)c1cc2c(cc1C)/C(=C(/Nc1ccc(C(=O)NCCN3CCCNC(=O)C3)cc1)c1ccccc1)C(=O)N2 [Example 56, (Z)-Methyl 5-methyl-2-oxo-3-(((4-((2-(3-oxo-1,4-diazepan-1-yl)ethyl)carbamoyl)phenyl)amino)(phenyl)methylene)indoline-6-carboxylate] |  | 9.16 nM | 100.0% | 104.9% | 102.0% | 12.6 nM |
